{
  "source": "patent US9546401B2",
  "about": "“Assays and methods for selecting a treatment regimen for a subject with depression” (The General Hospital Corporation, priority 2011, dated 2017)",
  "test_system": "MDD patients carrying the indicated biomarkers",
  "conditions": "for Effect on change in HAMD-28 score / Effect on change in HAMD-17 score: Pooled phases",
  "procedure": "Folate levels are classified as either low (<=2.5 ng/ml) or normal; and homocysteine levels as either normal or elevated (>=[…]). The presence or absence of at least one […] allele for the MTHFR gene are entered as a dichotomous variable (present or absent). […] Using folate as an example predicator, the presence or absence of a low serum-folate level along with treatment assignment can be entered in a 2×2, factorial ANOVA, using depression improvement scores (baseline minus endpoint HAM-D-17 scores) as the dependant variable. […] Similar analyses (i.e. separate 2×2 ANOVA's) can be performed substituting the presence of low folate levels for the presence of other predictors as described herein. Similarly, the effect of other predictors can be indicated by the interaction term representing the potential modulating influence of those variables.\nThe efficacy effect is determined by measuring the mean change in the HAMD-17 score and HAMD-28 score by the end of Phase I and Phase II, as compared to the baseline.",
  "key": {"[1]": {"conditions": "BMI < 30 kg/m^2 and HNE-His < median"}, "[2]": {"conditions": "BMI < 30 kg/m^2 and SAM/SAH >= median"}, "[3]": {"conditions": "BMI >= 30 kg/m^2 and HNE-His >= median"}, "[4]": {"conditions": "BMI*treat (interaction of BMI with the treatment)"}, "[5]": {"conditions": "MTHFR 677 CC and BMI < 30 kg/m^2"}, "[6]": {"conditions": "MTHFR 677 CT or TT and BMI >= 30 kg/m^2"}, "[7]": {"conditions": "MTHFR 677 CT or TT and HNE-His >= median"}, "[8]": {"conditions": "MTR 2756 AA and BMI < 30 kg/m^2"}, "[9]": {"conditions": "MTR 2756 AA and HNE-His < median"}, "[10]": {"conditions": "MTR 2756 AA and MTRR 66 AA and SAM/SAH >= median"}, "[11]": {"conditions": "MTR 2756 AA and SAM/SAH >= median"}, "[12]": {"conditions": "MTR 2756 AG or GG and BMI >= 30 kg/m^2"}, "[13]": {"conditions": "MTR 2756 AG or GG and MTRR 66 AG or GG"}, "[14]": {"conditions": "MTR 2756 AG or GG and MTRR 66 AG or GG and HNE-His >= median"}, "[15]": {"conditions": "MTRR 66 AA and SAM/SAH >= median"}, "[16]": {"conditions": "MTRR 66 AG or GG and HNE-His >= median"}, "[17]": {"conditions": "SAM/SAH < median and HNE-His >= median"}, "[18]": {"conditions": "SAM/SAH >= median and HNE-His < median"}},
  "note": "Like-named read-outs stand apart in the source and are kept apart here. Marks after values point to notes of the source that are not given here.",
  "data": [
    {"smiles": "CN1c2c(nc(N)[nH]c2=O)NC[C@@H]1CNc1ccc(C(=O)N[C@@H](CCC(=O)O)C(=O)O)cc1", "note": "[6(S)-5-MTHF, 6(S)-5-methyltetrahydrofolate]", "values": [
      {"measurement": "Effect on change in HAMD-28 score", "setting": "BMI < 25", "result": "−1.018"},
      {"measurement": "Effect on change in HAMD-17 score", "setting": "[1]", "result": 4.738},
      {"measurement": "Effect on change in HAMD-28 score", "setting": "[1]", "result": 4.253},
      {"measurement": "Effect on change in HAMD-17 score", "setting": "[2]", "result": 2.583},
      {"measurement": "Effect on change in HAMD-28 score", "setting": "[2]", "result": 2.906},
      {"measurement": "Effect on change in HAMD-17 score", "setting": "BMI >= 30 kg/m^2", "result": "−4.600"},
      {"measurement": "Effect on change in HAMD-28 score", "setting": "BMI >= 30 kg/m^2", "result": "−4.660"},
      {"measurement": "Effect on change in HAMD-17 score", "setting": "[3]", "result": "−5.420"},
      {"measurement": "Effect on change in HAMD-28 score", "setting": "[3]", "result": "−5.996"},
      {"measurement": "Effect on change in HAMD-17 score", "setting": "BMI >= 30 kg/m^2 and SAM/SAH < median", "result": "−7.302"},
      {"measurement": "Effect on change in HAMD-28 score", "setting": "BMI >= 30 kg/m^2 and SAM/SAH < median = 2.71 (plasma)", "result": "−7.572"},
      {"measurement": "Effect on change in HAMD-17 score", "setting": "[4]", "result": "−0.233"},
      {"measurement": "Effect on change in HAMD-28 score", "setting": "[4]", "result": "−0.270"},
      {"measurement": "Effect on change in HAMD-17 score", "setting": "[5]", "result": 1.356},
      {"measurement": "Effect on change in HAMD-28 score", "setting": "[5]", "result": "−0.234"},
      {"measurement": "Effect on change in HAMD-17 score", "setting": "MTHFR 677 CC and HNE-His < median", "result": "−1.050"},
      {"measurement": "Effect on change in HAMD-28 score", "setting": "MTHFR 677 CC and HNE-His < median = 3.28 (plasma)", "result": "−1.340"},
      {"measurement": "Effect on change in HAMD-17 score", "setting": "[6]", "result": "−8.090"},
      {"measurement": "Effect on change in HAMD-28 score", "setting": "[6]", "result": "−9.884"},
      {"measurement": "Effect on change in HAMD-17 score", "setting": "[7]", "result": "−9.446"},
      {"measurement": "Effect on change in HAMD-28 score", "setting": "[7]", "result": "−9.865"},
      {"measurement": "Effect on change in HAMD-17 score", "setting": "MTR 2756 AA", "result": "−0.590"},
      {"measurement": "Effect on change in HAMD-28 score", "setting": "MTR 2756 AA", "result": "−0.047"},
      {"measurement": "Effect on change in HAMD-17 score", "setting": "[8]", "result": 3.196},
      {"measurement": "Effect on change in HAMD-28 score", "setting": "[8]", "result": 3.352},
      {"measurement": "Effect on change in HAMD-17 score", "setting": "[9]", "result": 1.319},
      {"measurement": "Effect on change in HAMD-28 score", "setting": "[9]", "result": 2.085},
      {"measurement": "Effect on change in HAMD-17 score", "setting": "MTR 2756 AA and MTRR 66 AA", "result": "−1.373"},
      {"measurement": "Effect on change in HAMD-28 score", "setting": "MTR 2756 AA and MTRR 66 AA", "result": "−3.032"},
      {"measurement": "Effect on change in HAMD-17 score", "setting": "MTR 2756 AA and MTRR 66 AA and HNE-His < median", "result": 0.466},
      {"measurement": "Effect on change in HAMD-28 score", "setting": "MTR 2756 AA and MTRR 66 AA and HNE-His < median = 3.28 (plasma)", "result": "−2.221"},
      {"measurement": "Effect on change in HAMD-17 score", "setting": "[10]", "result": "−3.98*"},
      {"measurement": "Effect on change in HAMD-28 score", "setting": "[10]", "result": "−3.74*"},
      {"measurement": "Effect on change in HAMD-17 score", "setting": "[11]", "result": 0.054},
      {"measurement": "Effect on change in HAMD-28 score", "setting": "[11]", "result": "−0.071"},
      {"measurement": "Effect on change in HAMD-17 score", "setting": "[12]", "result": "−11.714"},
      {"measurement": "Effect on change in HAMD-28 score", "setting": "[12]", "result": "−14.433"},
      {"measurement": "Effect on change in HAMD-17 score", "setting": "MTR 2756 AG or GG and HNE-His >= median", "result": "−8.072"},
      {"measurement": "Effect on change in HAMD-28 score", "setting": "MTR 2756 AG or GG and HNE-His >= median = 3.28 (plasma)", "result": "−9.508"},
      {"measurement": "Effect on change in HAMD-17 score", "setting": "[13]", "result": "−6.976"},
      {"measurement": "Effect on change in HAMD-28 score", "setting": "[13]", "result": "−9.348"},
      {"measurement": "Effect on change in HAMD-17 score", "setting": "[14]", "result": "−7.942"},
      {"measurement": "Effect on change in HAMD-28 score", "setting": "[14]", "result": "−10.241"},
      {"measurement": "Effect on change in HAMD-17 score", "setting": "MTR 2756 AG or GG and MTRR 66 AG or GG and SAM/SAH < median", "result": "−7.64*"},
      {"measurement": "Effect on change in HAMD-28 score", "setting": "MTR 2756 AG or GG and MTRR 66 AG or GG and SAM/SAH < median = 2.71 (plasma)", "result": "−11.62*"},
      {"measurement": "Effect on change in HAMD-17 score", "setting": "MTR 2756 AG or GG and SAM/SAH < median", "result": "−5.583"},
      {"measurement": "Effect on change in HAMD-28 score", "setting": "MTR 2756 AG or GG and SAM/SAH < median = 2.71 (plasma)", "result": "−11.683"},
      {"measurement": "Effect on change in HAMD-17 score", "setting": "MTR 2756 AG/GG", "result": "−5.677"},
      {"measurement": "Effect on change in HAMD-28 score", "setting": "MTR 2756 AG/GG", "result": "−8.243"},
      {"measurement": "Effect on change in HAMD-17 score", "setting": "MTRR 66 AA and HNE-His < median", "result": 2.575},
      {"measurement": "Effect on change in HAMD-28 score", "setting": "MTRR 66 AA and HNE-His < median = 3.28 (plasma)", "result": "−2.626"},
      {"measurement": "Effect on change in HAMD-17 score", "setting": "[15]", "result": "−2.978"},
      {"measurement": "Effect on change in HAMD-28 score", "setting": "[15]", "result": "−1.221"},
      {"measurement": "Effect on change in HAMD-17 score", "setting": "[16]", "result": "−4.850"},
      {"measurement": "Effect on change in HAMD-28 score", "setting": "[16]", "result": "−6.582"},
      {"measurement": "Effect on change in HAMD-17 score", "setting": "MTRR 66 AG or GG and SAM/SAH < median", "result": "−5.879"},
      {"measurement": "Effect on change in HAMD-28 score", "setting": "MTRR 66 AG or GG and SAM/SAH < median = 2.71 (plasma)", "result": "−6.579"},
      {"measurement": "Effect on change in HAMD-17 score", "setting": "[17]", "result": "−9.898"},
      {"measurement": "Effect on change in HAMD-28 score", "setting": "[17]", "result": "−9.500"},
      {"measurement": "Effect on change in HAMD-17 score", "setting": "[18]", "result": 2.107},
      {"measurement": "Effect on change in HAMD-28 score", "setting": "[18]", "result": 2.413},
      {"measurement": "Effect on change in HAMD-28 score", "setting": "SAM/SAH*treat, first line under HAMD28", "result": 0.882},
      {"measurement": "Effect on change in HAMD-17 score", "setting": "baseHAMD-17*treat (interaction of base HAMD-17 with the treatment)", "result": "−0.025"},
      {"measurement": "improvement in HDRS-28 or CGI-S", "setting": "at least one T allele (CT or TT) at MTHFR 677 versus no T allele, + SSRI", "result": "greater degree of improvement"},
      {"measurement": "improvement in HAMD-28 or CGI-S", "setting": "obese (BMI at least 30 kg/m^2) versus non-obese patients, + SSRI", "result": "greater degree of improvement"},
      {"measurement": "mean change in HAMD-28", "setting": "patients carrying at least one G variant in the MTR gene only", "result": "about −8.2"},
      {"measurement": "mean change in HAMD-28", "setting": "patients carrying both MTHFR T and MTR G variants", "result": "about −23.3"}
    ]}
  ]
}
